Measurements taken from patent US9738642B2, “Triazolopyridine ether derivatives and their use in neurological and pyschiatric disorders” (BRISTOL-MYERS SQUIBB COMPANY, priority 2013, dated 2017).
Where a name gives a salt, the structure may show the parent alone. Read-outs that look alike come from different tables or passages of the source.

Molecular target: T1, human mGluR2 (Homo sapiens, UniProt Q14416)
T1 construct: expressed in transfected cells; host or cells: HEK293 clonal line
Assay: mGluR2 cAMP assay
Format: cell-based
Conditions: clonally expressed human mGluR2 in HEK293, 1 μM forskolin, 1 μM LY-341495, 30 min, CISBIO cAMP kit
Method: On the day of the assay, media was removed, cells washed with PBS, cells harvested and pelleted by centrifugation. Cell pellets were resuspended in stimulation buffer without forskolin and counted. […] A standard curve was created using a top concentration of cAMP of 1 μM in the stimulation buffer, 1:3 dilutions over 14 points in the absence of cells. […] In house software converted the fluorescence value ratios to units of cAMP concentration, which is then used to calculate % inhibition for each test compound. MGluR2 cAMP Assay Materials and Methods. […] Buffer without forskolin was used as a negative control. Solutions of D2 and cryptate detection reagents from the CISBIO dynamic cAMP kit (62AM4PEJ) were diluted 1:40 in lysis buffer. Lysis buffer consisted of 50 mM Phosphate Buffer pH 7.0, 800 mM Potassium Fluoride, 0.2% BSA, and 1.0% Triton. Assay reaction was terminated by addition of detection reagents in lysis buffer. One hour later, plates were read on a PE Viewlux. Data was extracted, and concentration response curves generated by fitting the data to a standard 4 parameter logistic equation from which EC50 values were determined.

[1] = read-out: EC50 (nM), activity in mGluR2 cAMP assay

T1 sequence (Q14416 19-872): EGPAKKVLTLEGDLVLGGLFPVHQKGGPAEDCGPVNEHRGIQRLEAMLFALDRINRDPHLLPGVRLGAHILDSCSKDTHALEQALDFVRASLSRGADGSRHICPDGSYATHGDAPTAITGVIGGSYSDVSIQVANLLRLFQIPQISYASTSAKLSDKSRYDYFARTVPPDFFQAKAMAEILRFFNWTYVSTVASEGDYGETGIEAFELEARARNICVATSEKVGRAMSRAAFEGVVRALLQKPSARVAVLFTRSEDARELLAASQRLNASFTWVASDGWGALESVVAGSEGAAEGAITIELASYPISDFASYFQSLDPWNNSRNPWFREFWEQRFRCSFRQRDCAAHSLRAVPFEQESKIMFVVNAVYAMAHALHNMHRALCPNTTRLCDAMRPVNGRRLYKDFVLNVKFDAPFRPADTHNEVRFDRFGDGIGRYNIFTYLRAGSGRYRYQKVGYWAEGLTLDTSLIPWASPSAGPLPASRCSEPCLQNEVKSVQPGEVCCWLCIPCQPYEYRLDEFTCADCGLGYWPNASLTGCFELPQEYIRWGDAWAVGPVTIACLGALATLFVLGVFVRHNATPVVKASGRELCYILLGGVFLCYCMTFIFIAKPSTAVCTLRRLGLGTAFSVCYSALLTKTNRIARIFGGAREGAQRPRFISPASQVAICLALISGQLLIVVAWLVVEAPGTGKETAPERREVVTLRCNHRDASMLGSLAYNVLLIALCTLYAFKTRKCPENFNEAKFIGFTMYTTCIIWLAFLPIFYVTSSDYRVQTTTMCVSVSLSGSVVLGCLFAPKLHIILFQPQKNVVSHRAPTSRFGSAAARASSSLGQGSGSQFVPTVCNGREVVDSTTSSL

Row | SMILES | EC50 [1] [nM] | EC50 (EC50 (nM), activity in mGluR2 cAMP assay) [nM]
1 | CC(COc1ccn2c(CC3CC3)nnc2c1C(F)(F)F)c1ccc(F)cc1 (racemic) [Example 4, 3-(Cyclopropylmethyl)-7-(2-(4-fluorophenyl)propoxy)-8-(trifluoromethyl)-[1,2,4]triazolo[4,3-a]pyridine, TFA salt] | 10 | –
2 | CC(COc1ccn2c(CC3CC3)nnc2c1C(F)(F)F)c1c(F)cccc1Cl (racemic) [Example 5, 7-(2-(2-Chloro-6-fluorophenyl)propoxy)-3-(cyclopropylmethyl)-8-(trifluoromethyl)-[1,2,4]triazolo[4,3-a]pyridine] | 1 | –
3 | CC(C#N)(COc1ccn2c(CC3CC3)nnc2c1C(F)(F)F)c1ccc(F)cc1 (racemic) [Example 12, 3-(3-(Cyclopropylmethyl)-8-(trifluoromethyl)-[1,2,4]triazolo[4,3-a]pyridin-7-yloxy)-2-(4-fluorophenyl)-2-methylpropanenitrile, TFA salt] | 130 | –
4 | COC(C)(COc1ccn2c(CC3CC3)nnc2c1C(F)(F)F)c1ccc(F)cc1 (racemic) [Example 21, 3-(Cyclopropylmethyl)-7-(2-(4-fluorophenyl)-2-methoxypropoxy)-8-(trifluoromethyl)-[1,2,4]triazolo[4,3-a]pyridine] | 31 | –
5 | FC(F)(F)c1c(OC[C@H]2C[C@@H]2c2ccc(Cl)cc2)ccn2c(CC3CC3)nnc12 (racemic) [Example 31, (±)-7-(((1S,2S)-2-(4-chlorophenyl)cyclopropyl)methoxy)-3-(cyclopropylmethyl)-8-(trifluoromethyl)-[1,2,4]triazolo[4,3-a]pyridine] | 1.3 | –
6 | COc1cccc(F)c1[C@H]1C[C@@H]1COc1ccn2c(CC3CC3)nnc2c1C(F)(F)F (racemic) [Example 32, (±)-3-(Cyclopropylmethyl)-7-(((1S,2S)-2-(2-fluoro-6-methoxyphenyl)cyclopropyl)methoxy)-8-(trifluoromethyl)-[1,2,4]triazolo[4,3-a]pyridine] | 0.3 | –
7 | COc1ccccc1[C@H]1C[C@@H]1COc1ccn2c(CC3CC3)nnc2c1C(F)(F)F (racemic) [Example 37, (±)-3-(Cyclopropylmethyl)-7-(((1S,2S)-2-(2-methoxyphenyl)cyclopropyl)methoxy)-8-(trifluoromethyl)-[1,2,4]triazolo[4,3-a]pyridine] | 0.2 | –
8 | FC(F)(F)Oc1ccccc1[C@H]1C[C@@H]1COc1ccn2c(CC3CC3)nnc2c1C(F)(F)F (racemic) [Example 38, (±)-3-(Cyclopropylmethyl)-7-(((1S,2S)-2-(2-(trifluoromethoxy)phenyl)cyclopropyl)methoxy)-8-(trifluoromethyl)-[1,2,4]triazolo[4,3-a]pyridine] | 1.4 | –
9 | Fc1ccccc1[C@H]1C[C@@H]1COc1ccn2c(CC3CC3)nnc2c1C(F)(F)F (racemic) [Example 43, (±)-3-(Cyclopropylmethyl)-7-(((1S,2S)-2-(2-fluorophenyl)cyclopropyl)methoxy)-8-(trifluoromethyl)-[1,2,4]triazolo[4,3-a]pyridine] | 1.4 | –
10 | Fc1ccc(F)c([C@H]2C[C@@H]2COc2ccn3c(CC4CC4)nnc3c2C(F)(F)F)c1 (racemic) [Example 44, (±)-3-(Cyclopropylmethyl)-7-(((1S,2S)-2-(2,5-difluorophenyl)cyclopropyl)methoxy)-8-(trifluoromethyl)-[1,2,4]triazolo[4,3-a]pyridine] | 1.9 | –
11 | COc1ccc([C@H]2C[C@@H]2COc2ccn3c(CC4CC4)nnc3c2C(F)(F)F)cc1 (racemic) [Example 45, (±)-3-(Cyclopropylmethyl)-7-(((1S,2S)-2-(4-methoxyphenyl)cyclopropyl)methoxy)-8-(trifluoromethyl)-[1,2,4]triazolo[4,3-a]pyridine] | 1.3 | –
12 | COc1c(F)ccc(F)c1[C@H]1C[C@@H]1COc1ccn2c(CC3CC3)nnc2c1C(F)(F)F (racemic) [Example 47, (±)-3-(Cyclopropylmethyl)-7-(((1S,2S)-2-(3,6-difluoro-2-methoxyphenyl)cyclopropyl)methoxy)-8-(trifluoromethyl)-[1,2,4]triazolo[4,3-a]pyridine] | 0.8 | –
13 | Fc1cccc(Cl)c1[C@H]1C[C@@H]1COc1ccn2c(CC3CC3)nnc2c1C(F)(F)F (racemic) [Example 48, (±)-7-(((1S,2S)-2-(2-chloro-6-fluorophenyl)cyclopropyl)methoxy)-3-(cyclopropylmethyl)-8-(trifluoromethyl)-[1,2,4]triazolo[4,3-a]pyridine] | 0.5 | –
14 | COc1cc(F)ccc1[C@H]1C[C@@H]1COc1ccn2c(CC3CC3)nnc2c1C(F)(F)F (racemic) [Example 49, (±)-3-(Cyclopropylmethyl)-7-(((1S,2S)-2-(4-fluoro-2-methoxyphenyl)cyclopropyl)methoxy)-8-(trifluoromethyl)-[1,2,4]triazolo[4,3-a]pyridine] | 0.4 | –
15 | Fc1ccc([C@H]2C[C@@H]2COc2ccn3c(CC4CC4)nnc3c2C(F)(F)F)cc1 (racemic) [Example 77, (±)-3-(Cyclopropylmethyl)-7-(((1S,2S)-2-(4-fluorophenyl)cyclopropyl)methoxy)-8-(trifluoromethyl)-[1,2,4]triazolo[4,3-a]pyridine] | – | 1.7
16 | FC(COc1ccn2c(CC3CC3)nnc2c1C(F)(F)F)c1ccccc1 (racemic) [Example 84, 3-(Cyclopropylmethyl)-7-(2-fluoro-2-phenylethoxy)-8-(trifluoromethyl)-[1,2,4]triazolo[4,3-a]pyridine] | 5.8 | –
17 | FC(F)(F)c1c(OCc2ccccc2)ccn2c(CC3CC3)nnc12 (racemic) [Example 85, 7-(Benzyloxy)-3-(cyclopropylmethyl)-8-(trifluoromethyl)-[1,2,4]triazolo[4,3-a]pyridine] | 25 | –

Row | SMILES | EC50 [1] [nM] | EC50 (EC50 (nM), activity in mGluR2 cAMP assay) [nM]
18 | CO[C@]1(c2ccc(F)cc2)CC[C@H](Oc2ccn3c(C4CC4(F)F)nnc3c2C(F)(F)F)CC1 (mixture of isomers) [Example 86, (±)-3-(2,2-Difluorocyclopropyl)-7-((1s,4s)-4-(4-fluorophenyl)-4-methoxycyclohexyloxy)-8-(trifluoromethyl)-[1,2,4]triazolo[4,3-a]pyridine] | 6.9 | –
19 | CO[C@]1(c2ccc(F)cc2)CC[C@H](Oc2ccn3c(C4CC4(C)C)nnc3c2C(F)(F)F)CC1 (mixture of isomers) [Example 94, 3-(2,2-Dimethylcyclopropyl)-7-((1s,4s)-4-(4-fluorophenyl)-4-methoxycyclohexyloxy)-8-(trifluoromethyl)-[1,2,4]triazolo[4,3-a]pyridine] | 12 | –
20 | Fc1ccc([C@H]2C[C@H](Oc3ccn4c(C5CC5(F)F)nnc4c3C(F)(F)F)C2)cc1 (mixture of isomers) [Example 98, (±)-3-(2,2-Difluorocyclopropyl)-7-((1r,3r)-3-(4-fluorophenyl)cyclobutoxy)-8-(trifluoromethyl)-[1,2,4]triazolo[4,3-a]pyridine] | 5.1 | –
21 | CO[C@]1(c2ccc(F)cc2)CC[C@H](Oc2ccn3c([C@@H]4C[C@H]4F)nnc3c2C(F)(F)F)CC1 (relative stereo) [Example 89, (±)-rel-3-((1S,2R)-2-Fluorocyclopropyl)-7-((1s,4s)-4-(4-fluorophenyl)-4-methoxycyclohexyloxy)-8-(trifluoromethyl)-[1,2,4]triazolo[4,3-a]pyridine] | 41 | –
22 | C[C@@H](COc1ccn2c(CC3CC3)nnc2c1C(F)(F)F)c1c(F)cccc1Cl (single isomer, unassigned) [Example 9] | 0.8 | –
23 | C[C@H](COc1ccn2c(CC3CC3)nnc2c1C(F)(F)F)c1c(F)cccc1Cl (single isomer, unassigned) [Example 10] | 0.8 | –
24 | C[C@@](C#N)(COc1ccn2c(CC3CC3)nnc2c1C(F)(F)F)c1ccc(F)cc1 (single isomer, unassigned) [Example 14] | 230 | –
25 | C[C@](C#N)(COc1ccn2c(CC3CC3)nnc2c1C(F)(F)F)c1ccc(F)cc1 (single isomer, unassigned) [Example 15] | 80 | –
26 | CO[C@@](C)(COc1ccn2c(CC3CC3)nnc2c1C(F)(F)F)c1ccc(F)cc1 (single isomer, unassigned) [Example 24] | 36 | –
27 | CO[C@](C)(COc1ccn2c(CC3CC3)nnc2c1C(F)(F)F)c1ccc(F)cc1 (single isomer, unassigned) [Example 25] | 25 | –
28 | COc1cccc(F)c1[C@H]1C[C@@H]1COc1ccn2c(CC3CC3)nnc2c1C(F)(F)F (single isomer, unassigned) [Example 35] | 0.2 | –
29 | COc1cccc(F)c1[C@@H]1C[C@H]1COc1ccn2c(CC3CC3)nnc2c1C(F)(F)F (single isomer, unassigned) [Example 36] | 0.2 | –
30 | COc1ccccc1[C@H]1C[C@@H]1COc1ccn2c(CC3CC3)nnc2c1C(F)(F)F (single isomer, unassigned) [Example 39] | 0.6 | –
31 | COc1ccccc1[C@@H]1C[C@H]1COc1ccn2c(CC3CC3)nnc2c1C(F)(F)F (single isomer, unassigned) [Example 40] | 1.4 | –
32 | FC(F)(F)Oc1ccccc1[C@H]1C[C@@H]1COc1ccn2c(CC3CC3)nnc2c1C(F)(F)F (single isomer, unassigned) [Example 41] | 2.2 | –
33 | FC(F)(F)Oc1ccccc1[C@@H]1C[C@H]1COc1ccn2c(CC3CC3)nnc2c1C(F)(F)F (single isomer, unassigned) [Example 42] | 1.9 | –
